Assay results taken from paper PMC6934184, “Selective DNA-PKcs inhibition extends the therapeutic index of localized radiotherapy and chemotherapy” (The Journal of Clinical Investigation, 2019).

Molecular target: T1, MAPK8 (JNK1) (Homo sapiens, UniProt P45983)
T1 construct: purchased Thermo Fisher Scientific (Life Technologies) SelectScreen
Assay: SelectScreen Z'LYTE
Type: biochemical
Conditions: ATP 100 µM
In short: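 SelectScreen broad panel; activity (Z'LYTE, Adapta) plus binding formats. ATP: Km app for CSF1R Z'LYTE; 10 for CAMK1 Adapta. Readout = % per kinase.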

T1 sequence (P45983 whole entry): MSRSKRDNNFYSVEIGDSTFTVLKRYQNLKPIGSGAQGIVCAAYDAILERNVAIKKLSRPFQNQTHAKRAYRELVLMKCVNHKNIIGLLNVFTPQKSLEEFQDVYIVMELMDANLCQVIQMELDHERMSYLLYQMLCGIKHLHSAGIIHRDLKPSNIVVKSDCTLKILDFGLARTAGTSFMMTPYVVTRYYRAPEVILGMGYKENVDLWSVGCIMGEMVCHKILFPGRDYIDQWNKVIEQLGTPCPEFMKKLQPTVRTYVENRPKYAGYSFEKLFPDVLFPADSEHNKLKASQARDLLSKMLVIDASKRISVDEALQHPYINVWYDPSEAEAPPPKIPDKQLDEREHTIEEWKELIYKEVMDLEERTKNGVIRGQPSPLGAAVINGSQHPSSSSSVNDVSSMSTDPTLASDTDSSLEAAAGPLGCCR

For `CN(C(=O)CN1CCOCC1)c1ccc2sc3c(-c4cccc5c(=O)cc(N6CC7CCC(C6)O7)oc45)cccc3c2c1` [NU5455], the inhibition at 1 µM was 12%.
